Assay results taken from patent US20020161013A1, “Method of local anesthesia and analgesia” (priority 2001, published 2002).
Counter-ions that a name gives are not always drawn. Like-named read-outs stand apart in the source and are kept apart here.

Experiments:
rabbits [1] = system: rabbits; set-up: species or system New Zealand white rabbits; conditions: rabbit, in vivo
rabbit eyes [2] = system: rabbit eyes; set-up: species or system New Zealand white rabbits; conditions: in vivo
rabbits [3] = system: rabbits; set-up: species or system New Zealand white rabbits; conditions: rabbit, in vivo; remark: listed apart in the source
rabbit eyes [4] = conditions: in vivo
[5] = cited from earlier work

## NC1=N[C@H](O)[C@H]2[C@H]3O[C@]4(O)O[C@@H]([C@@H](O)[C@@]2(N1)[C@@H]4O)[C@]3(O)CO [TTX, tetrodotoxin]
Rabbits [1]
  abnormalities in other animals of the group: No significant abnormalities
  adverse signs in the TTX-treated eye: conjunctival congestion, hydrops (++) and lacrimation
  local anesthesia: local anesthesia to some extent
  toxic signs observed: Signs of convulsion, rigidity and death
Rabbit eyes [2]
  local anesthesia by retrobulbar injection compared with lidocaine: much more potent
  local anesthesia effect: weak effect
  local anesthesia in the treated eyes: showed local anesthesia in the treated eyes to various extents
Rabbits [3]
  general examination findings: No changes of food-taking pattern, movement, respiration or alertness
  toxic signs observed: Signs of convulsion, rigidity and death

## CCN(CC)CC(=O)Nc1c(C)cccc1C [lidocaine, lidocaine hydrochloride, reference compound]
Rabbit eyes [2]
  duration of action: 0.34 h
  onset: 1.94 min
Rabbit eyes [4]
  magnitude of ERG b wave versus controls: Neither were differences found
[5]; in vivo
  duration of action: over 20 minutes
  onset: about 2 minutes

## CCCCN1CCCCC1C(=O)Nc1c(C)cccc1C (stereo not shown) [bupivacaine]
[5]; bupivacaine, ophthalmic applications
  residual diplopia next morning: up to 70 % of patients
[5]; bupivacaine, peripheral nerve block
  duration of action: ≤ 24 h
